{"source": "patent US20070140979A1", "about": "“Method for accelerating the rate of mucociliary clearance” (BAYER AKTIENGESELLSCHAFT, priority 1998, published 2007)", "target": "Bovine chymotrypsin (Bos taurus, UniProt P00766)", "experiment": "Inhibition of chymotrypsin, Ki", "type": "biochemical", "conditions": "Chymotrypsin (5 nM)", "note": "pKi: −log10 of the molar value."}
{"smiles": "CC[C@H](C)[C@H](N)C(=O)N[C@@H](Cc1c[nH]cn1)C(=O)N[C@@H](CC(=O)O)C(=O)N[C@@H](Cc1ccccc1)C(=O)N[C@H]1CSSC[C@@H](C(=O)N[C@@H](C)C(=O)N[C@H](C(=O)N[C@H](C(=O)O)C(C)C)[C@@H](C)O)NC(=O)[C@H](CCCCN)NC(=O)[C@H](CCCCN)NC(=O)[C@H](CC(C)C)NC(=O)[C@@H]2CSSC[C@@H]3NC(=O)[C@H](CO)NC(=O)CNC(=O)[C@H](CC(=O)O)NC(=O)[C@H]([C@@H](C)O)NC(=O)[C@H](C(C)C)NC(=O)[C@H](CC(N)=O)NC(=O)[C@H](Cc4ccc(O)cc4)NC(=O)[C@H](Cc4c[nH]c5ccccc45)NC(=O)[C@H](Cc4c[nH]c5ccccc45)NC(=O)[C@H](CCCNC(=N)N)NC(=O)[C@@H]4CCCN4C(=O)[C@H](CCSC)NC(=O)[C@H](CO)NC(=O)[C@H](C)NC(=O)[C@H](CCCNC(=N)N)NC(=O)[C@H](CSSC[C@H](NC(=O)CNC(=O)CNC(=O)[C@H](Cc4ccc(O)cc4)NC(=O)[C@H](C(C)C)NC(=O)[C@H](Cc4ccccc4)NC(=O)[C@H](CC(C)C)NC(=O)[C@H](CCC(N)=O)NC3=O)C(=O)N[C@@H](CC(=O)O)C(=O)NCC(=O)N[C@@H](CC(N)=O)C(=O)N[C@@H](CO)C(=O)N[C@@H](CC(N)=O)C(=O)N[C@@H](CC(N)=O)C(=O)N[C@@H](Cc3ccc(O)cc3)C(=O)N[C@@H](CC(C)C)C(=O)N[C@@H]([C@@H](C)O)C(=O)N[C@@H](CCCCN)C(=O)N[C@@H](CCC(=O)O)C(=O)N[C@@H](CCC(=O)O)C(=O)N2)NC(=O)[C@H](CCCNC(=N)N)NC(=O)CNC(=O)[C@H](C(C)C)NC(=O)[C@H](C(C)C)NC(=O)[C@H](CCCCN)NC(=O)[C@H](CO)NC(=O)[C@H](C(C)C)NC(=O)[C@H](CC(C)C)NC1=O", "note": "[bikunin (7-64)]", "values": [{"measurement": "pKi", "value": 8.22}]}
